Data set [1] is described as follows: Inhibition of GGPTase-1 (unknown origin). Also noted: species or system Homo sapiens.
Data set [2] is described as follows: AUC in cynomolgus monkey at 3 mg/kg, po. In kind it is ADME, organism-based, Macaca fascicularis. Also noted: dose 3 mg/kg, route oral. Particulars: plasma.
The nature of data set [3]: Half life in cynomolgus monkey at 3 mg/kg, iv. Also noted: dose 3 mg/kg, route intravenous. In kind it is ADME, organism-based, Macaca fascicularis. Particulars: in vivo.
The next data set addresses T1, Interstitial collagenase (Homo sapiens, UniProt P03956).
T1 sequence (P03956 whole entry): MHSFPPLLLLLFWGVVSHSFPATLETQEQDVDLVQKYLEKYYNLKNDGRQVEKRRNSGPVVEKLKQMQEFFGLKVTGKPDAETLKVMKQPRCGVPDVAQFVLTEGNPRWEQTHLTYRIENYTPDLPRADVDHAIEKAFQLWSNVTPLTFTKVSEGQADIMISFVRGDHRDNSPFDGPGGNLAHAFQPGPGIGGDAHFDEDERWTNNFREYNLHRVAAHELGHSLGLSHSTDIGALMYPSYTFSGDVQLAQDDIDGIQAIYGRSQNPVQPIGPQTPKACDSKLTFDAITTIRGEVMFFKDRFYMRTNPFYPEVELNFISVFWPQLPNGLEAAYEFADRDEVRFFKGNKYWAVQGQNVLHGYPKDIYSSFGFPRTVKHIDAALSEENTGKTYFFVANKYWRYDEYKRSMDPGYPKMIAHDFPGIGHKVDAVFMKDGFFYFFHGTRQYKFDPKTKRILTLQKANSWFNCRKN
Nature of the data set: Inhibition of MMP-1 (unknown origin).

Data set [4] has as its target 72 kDa type IV collagenase (Homo sapiens, UniProt P08253). Nature of the data set: Inhibition of MMP-2 (unknown origin).
In another data set the target is T2, Aromatase (Homo sapiens, UniProt P11511).
T2 sequence (P11511 whole entry): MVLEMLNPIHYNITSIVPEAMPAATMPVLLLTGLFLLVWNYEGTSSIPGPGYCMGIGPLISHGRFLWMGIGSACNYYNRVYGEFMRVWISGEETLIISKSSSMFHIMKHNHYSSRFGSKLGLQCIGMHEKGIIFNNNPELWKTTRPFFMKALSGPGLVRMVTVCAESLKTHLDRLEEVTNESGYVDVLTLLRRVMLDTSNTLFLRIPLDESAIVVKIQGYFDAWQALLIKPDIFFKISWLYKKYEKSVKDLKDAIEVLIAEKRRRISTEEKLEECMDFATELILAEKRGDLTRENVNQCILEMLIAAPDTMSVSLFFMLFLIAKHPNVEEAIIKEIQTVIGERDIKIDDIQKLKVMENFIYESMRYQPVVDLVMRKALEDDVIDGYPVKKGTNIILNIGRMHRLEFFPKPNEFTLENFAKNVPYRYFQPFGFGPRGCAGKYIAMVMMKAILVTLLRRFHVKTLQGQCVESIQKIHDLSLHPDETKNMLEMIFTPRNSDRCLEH
Put plainly: Inhibition of aromatase (unknown origin).

Data set [5] is described as follows: Cytotoxicity against human MOLT3 cells. In kind it is functional, cell-based. Particulars: MOLT-3.
Another data set relates to HL-60. Put plainly: Cytotoxicity against human HL60 cells. Type of data set: functional, cell-based.
Data set [6] addresses Matrix metalloproteinase-9 (Homo sapiens, UniProt P14780). Nature of the data set: Inhibition of MMP-9 (unknown origin).
Data set [7] in a line: Selectivity index, ratio of IC50 for human KB3-1 cells to IC50 for bFGF-treated HUVEC. Also noted: species or system KB 3-1.
The subject of the next data set is HUVEC. Nature of the data set: Antiproliferative activity against bFGF-treated HUVEC. To be noted: Homo sapiens. Type of data set: functional, cell-based.
Data set [8] has as its system PC-3. Nature of the data set: Cytotoxicity against human PC3 cells assessed as growth inhibition after 48 hrs by MTT assay. Type of data set: functional, cell-based. To be noted: PC-3, 48 h.
A short description of data set [9]: Cytotoxicity against human RPE1 cells assessed as cell viability after 24 to 72 hrs by MTT assay. To be noted: RPE-1. Type of data set: cell-based, TERT-RPE1. In general terms: Tetrazolium assays rely on reduction of a dye to a coloured formazan, in cell work by metabolically active cells.
Data set [10] deals with PC-3. Put plainly: Induction of apoptosis in human PC3 cells at 10 uM after 24 hrs by propidium iodide/Hochest33342 staining-based flow cytometry (reference value: 0.05%). In kind it is functional.
Another data set concerns P388. Nature of the data set: Cytotoxicity against mouse P388 cells assessed as growth inhibition after 5 days by MTT assay. Type of data set: functional, cell-based. To be noted: P388, 120 h.

Sequence of 72 kDa type IV collagenase (P08253 whole entry): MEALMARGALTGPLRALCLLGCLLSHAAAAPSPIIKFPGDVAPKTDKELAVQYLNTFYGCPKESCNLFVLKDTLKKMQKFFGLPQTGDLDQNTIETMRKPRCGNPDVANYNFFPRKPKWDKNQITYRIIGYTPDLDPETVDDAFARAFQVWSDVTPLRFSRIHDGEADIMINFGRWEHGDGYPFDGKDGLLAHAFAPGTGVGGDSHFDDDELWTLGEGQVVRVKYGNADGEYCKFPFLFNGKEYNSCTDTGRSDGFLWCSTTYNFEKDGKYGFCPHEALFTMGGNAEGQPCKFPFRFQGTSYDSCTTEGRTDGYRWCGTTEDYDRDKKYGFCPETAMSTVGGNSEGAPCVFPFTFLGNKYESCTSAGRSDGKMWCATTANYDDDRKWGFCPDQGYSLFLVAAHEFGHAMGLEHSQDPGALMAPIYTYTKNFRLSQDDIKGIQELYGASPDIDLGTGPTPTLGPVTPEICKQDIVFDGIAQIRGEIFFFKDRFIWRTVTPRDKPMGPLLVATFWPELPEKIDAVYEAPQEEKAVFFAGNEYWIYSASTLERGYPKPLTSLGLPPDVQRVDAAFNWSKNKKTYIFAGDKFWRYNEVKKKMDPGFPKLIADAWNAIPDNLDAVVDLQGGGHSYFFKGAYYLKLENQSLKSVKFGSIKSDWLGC
Sequence of Matrix metalloproteinase-9 (P14780 whole entry): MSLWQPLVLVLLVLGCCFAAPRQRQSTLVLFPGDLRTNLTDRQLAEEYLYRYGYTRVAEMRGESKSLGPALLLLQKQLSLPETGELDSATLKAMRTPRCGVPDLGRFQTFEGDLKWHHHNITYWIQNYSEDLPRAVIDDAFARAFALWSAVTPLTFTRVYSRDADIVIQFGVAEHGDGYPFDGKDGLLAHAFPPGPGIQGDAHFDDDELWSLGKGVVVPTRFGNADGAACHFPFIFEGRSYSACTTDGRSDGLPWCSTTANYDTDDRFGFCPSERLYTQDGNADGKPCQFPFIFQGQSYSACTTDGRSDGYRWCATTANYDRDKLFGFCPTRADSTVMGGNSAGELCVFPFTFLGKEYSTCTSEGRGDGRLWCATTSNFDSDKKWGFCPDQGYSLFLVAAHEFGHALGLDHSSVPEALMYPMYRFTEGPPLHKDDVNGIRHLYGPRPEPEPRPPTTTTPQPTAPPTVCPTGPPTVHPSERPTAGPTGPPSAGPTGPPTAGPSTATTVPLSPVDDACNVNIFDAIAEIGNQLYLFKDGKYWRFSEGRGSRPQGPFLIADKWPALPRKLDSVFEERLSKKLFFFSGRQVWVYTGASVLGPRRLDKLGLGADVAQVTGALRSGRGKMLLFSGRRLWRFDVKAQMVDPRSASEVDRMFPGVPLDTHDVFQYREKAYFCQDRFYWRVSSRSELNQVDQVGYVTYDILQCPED

Turning to `CC[C@@]1(c2cccc(Oc3cc(Cn4ccnc4)ccc3C#N)c2)CCCCN(C)C1=O`, the IC50 in [1] was 5.8 nM. In data set [2], `C[C@@H]1OC(C)(C)O[C@H]1C(CS(=O)(=O)c1ccc(Oc2ccc(OC(F)(F)F)cc2)cc1)N(O)C=O` (stereo partly specified) displayed an AUC of 21 µM·h. In data set [3], this compound had a half-life of 19.5 h. In addition, the IC50 against Interstitial collagenase is more than 50000 nM; in data set [4], 1.9 nM. In the case of `CC1(C)OC[C@H]([C@@H](CS(=O)(=O)c2ccc(Oc3ccc(OC(F)(F)F)cc3)cc2)N(O)C=O)O1`, the AUC in data set [2] turned out to be 53 µM·h. This compound also showed a half-life in data set [3] of 16.8 h. With `N#Cc1ccc(Cn2ccnc2)cc1Oc1ccc(Cl)cc1Cl`, in [1], inhibition was half-maximal at 280 nM (IC50). In data set [1], `COc1cccc(Oc2cc(Cn3ccnc3)ccc2C#N)c1OC` displayed an IC50 of 15000 nM. On the same count and under the same terms, next, `N#Cc1ccc(Cn2ccnc2)cc1Oc1ccccc1`: 3700 nM. On to `CC[C@@]1(c2cccc(Oc3cc([C@](C)(N)c4cncn4C)ccc3C#N)c2)CCCCN(C)C1=O`, for which the IC50 in data set [1] was determined as 3.6 nM. Compound `O=CN(O)C(CS(=O)(=O)c1ccc(Oc2ccc(OC(F)(F)F)cc2)cc1)C1CCC2(CC1)OCCO2` (stereo unspecified) had a half-inhibitory concentration (IC50) on Interstitial collagenase of more than 50000 nM. Take `O=CN(O)C(COCCO)CS(=O)(=O)c1ccc(Oc2ccc(OC(F)(F)F)cc2)cc1` (stereo unspecified): the half-life in data set [3] was 1.91 h. On Aromatase, `Cc1cc(O)cc2c1Oc1cc(O)cc(C)c1C(=O)O2` registered an IC50 of 5300 nM.

With `COc1cc(C)cc(Oc2c(C)cc(OC)cc2OC)c1`, the IC50 in [5] stood at 1400 nM; with HL-60, 2200 nM.

In data set [2], `O=CN(O)C(Cc1ccc(C(=O)O)cc1)CS(=O)(=O)c1ccc(Oc2ccc(OC(F)(F)F)cc2)cc1` (stereo unspecified) returned an AUC of 16 µM·h. Further, the IC50 in [6] is 0.53 nM; at Interstitial collagenase it was more than 50000 nM; in data set [4], 0.53 nM. On to `O=CN(O)C(CS(=O)(=O)c1ccc(Oc2ccc(OC(F)(F)F)cc2)cc1)[C@H]1CCCO1` (stereo partly specified), for which, in data set [2], the area under the curve (AUC) is 26 µM·h. In addition, the half-inhibitory concentration (IC50) is 0.32 nM in [6], more than 50000 nM at Interstitial collagenase and 0.61 nM in [4]. In data set [2], `CC1(C)OC[C@H](CC(CS(=O)(=O)c2ccc(Oc3ccc(OC(F)(F)F)cc3)cc2)N(O)C=O)O1` (stereo partly specified) came in with an AUC of 2 µM·h. Also, the concentration for half-maximal inhibition (IC50) is 5.5 nM in data set [6], more than 50000 nM at Interstitial collagenase and 1.5 nM in data set [4]. As to `O=C1CCc2cc(Br)c(c(Br)c2)Oc2cc(ccc2O)CCC(=O)NCCc2cc(Br)c(c(Br)c2)Oc2cc(cc(Br)c2O)CCN1`, in data set [7], the “Ratio IC50” value was determined as 1.6. Moreover, it took 4000 nM to reach half-maximal inhibition with HUVEC (IC50). The corresponding values for `N[C@@H]1Cc2cc(Br)c(c(Br)c2)Oc2cc(ccc2O)C[C@H](N)C(=O)NCCc2cc(Br)c(c(Br)c2)Oc2cc(cc(Br)c2O)CCNC1=O` are 26.2 and 610 nM. Turning to `Nc1cc2cc(c1O)Oc1c(Br)cc(cc1Br)CCNC(=O)/C(=N/O)Cc1cc(N)c(O)c(c1)Oc1c(Br)cc(cc1Br)C/C(=N/O)C(=O)NCC2`, the “Ratio IC50” value in data set [7] is reported as 3.4. Moreover, the midpoint of inhibition with HUVEC, the IC50, lay at 960 nM. In the case of `COc1ccc2cc1Oc1ccc(cc1)CCc1ccc(c(O)c1)Oc1cccc(c1)CC2`, the IC50 turned out to be 7980 nM in the data set with PC-3 [8] and 50000 nM in [9]. The compound further came in with an Activity with PC-3 [10] of 9.4%.

`COc1ccc(O)c2c1Oc1cccc(c1)CCc1ccc(O)c(c1)Oc1ccc(cc1)CC2`: the values for the IC50 (in the data set with PC-3 [8]; in data set [9]) were 5450 nM and 50000 nM, respectively. Besides, in the data set with PC-3 [10], the Activity stood at 51.62%. `CCC1(c2cccc(Oc3cc(C(N)c4cncn4C)ccc3C#N)c2)CCCCN(C)C1=O` (stereo unspecified): half-maximal inhibition in data set [1] (IC50) was put at 8 nM.

Compound `O=CN(O)C(CS(=O)(=O)c1ccc(Oc2ccc(OC(F)(F)F)cc2)cc1)[C@H](O)CO` (stereo partly specified) came in with an AUC in data set [2] of 3 µM·h. In addition, the half-life in data set [3] is 1 h. `CCC1(c2cccc(Oc3cc(C(C)(N)c4cncn4C)ccc3C#N)c2)CCCCN(C)C1=O` (mixture of isomers) returned an IC50 in [1] of 5.1 nM. The same measure, in the same setting: as for `CCC1(c2cccc(Oc3cc(Cc4cncn4C)ccc3C#N)c2)CCCCN(C)C1=O` (racemic), the figure is 10 nM; as for `CCC1(c2cccc(Oc3cc(Cn4ccnc4)ccc3C#N)c2)CCCCN(C)C1=O` (racemic), 7.1 nM.

Regarding `O=C1N/C=C/c2ccc(c(Br)c2)Oc2cc(cc(Br)c2O)CCNC(=O)/C(=N/O)Cc2cc(Br)c(c(Br)c2)Oc2cc(cc(Br)c2O)C/C1=N\O` [BASTADIN 4], in [7], the “Ratio IC50” value amounted to 38. This compound also gave an IC50 in the data set with HUVEC of 53 nM.

Take `O=C1NCCc2cc(Br)c(O)c(c2)Oc2ccc(cc2Br)CCNC(=O)/C(=N\O)Cc2cc(Br)c(O)c(c2)Oc2c(Br)cc(cc2Br)C/C1=N/O` [BASTADIN 5]: the “Ratio IC50” value in [7] was determined as 76. The compound further had a concentration for half-maximal inhibition (IC50) with HUVEC of 62 nM. Take `O=C1NCCc2cc(Br)c(O)c(c2)Oc2c(Br)cc(cc2Br)CCNC(=O)/C(=N/O)Cc2cc(Br)c(O)c(c2)Oc2c(Br)cc(cc2Br)C/C1=N\O` [BASTADIN 6]: the “Ratio IC50” value in [7] was found to be 41. Also, in the data set with HUVEC, the IC50 is 52 nM.

As to `O=C1N/C=C/c2ccc(c(Br)c2)Oc2cc(cc(Br)c2O)CCNC(=O)/C(=N/O)Cc2ccc(c(Br)c2)Oc2cc(cc(Br)c2O)C/C1=N\O` [BASTADIN 7], the “Ratio IC50” value in [7] is 56. Besides, in the data set on HUVEC, half-maximal inhibition (IC50) required 54 nM. As for `O=C1N/C=C/c2ccc(c(Br)c2)Oc2cc(ccc2O)CCNC(=O)/C(=N/O)Cc2cc(Br)c(c(Br)c2)Oc2cc(cc(Br)c2O)C/C1=N\O` [BASTADIN 11], the “Ratio IC50” value in data set [7] was found to be 38. For the same compound, the concentration for half-maximal inhibition (IC50) with HUVEC stood at 53 nM. `O=C1NCCc2ccc(c(Br)c2)Oc2cc(ccc2O)CCNC(=O)/C(=N/O)Cc2cc(Br)c(O)c(c2)Oc2c(Br)cc(cc2Br)C/C1=N\O` [BASTADIN 13]: the “Ratio IC50” value in [7] turned out to be 14. In addition, in the data set with HUVEC, 520 nM corresponded to half-maximal inhibition (IC50). In the same order, the values of `O=C1NCCc2ccc(c(Br)c2)Oc2cc(cc(Br)c2O)CCNC(=O)/C(=N/O)Cc2cc(Br)c(O)c(c2)Oc2c(Br)cc(cc2Br)C/C1=N\O` [BASTADIN 19] are 19 and 120 nM. As for `COc1ccc(/C=C\c2cc(OC)c(OC)c(OC)c2)cc1O` [COMBRETASTATIN A4], the IC50 with P388 amounted to 2.6 nM. On to `COc1cc([C@@H]2c3cc4c(cc3[C@@H](O[C@@H]3O[C@@H]5CO[C@@H](C)O[C@H]5[C@H](O)[C@H]3O)[C@H]3COC(=O)[C@H]23)OCO4)cc(OC)c1O` [ETOPOSIDE], for which the IC50 was 20 nM in [5] and 610 nM in the data set on HL-60.

`Oc1ccc2c(c1)CCc1ccc(cc1)Oc1cc(ccc1O)CCc1ccc-2c(O)c1` [RICCARDI C]: the IC50 was 3220 nM in the data set on PC-3 [8] and 50000 nM in [9]. For the same compound, in the data set with PC-3 [10], the Activity was found to be 6.21%.

One may read the IC50 as the concentration that inhibits the measured activity by half. By AUC is commonly meant concentration integrated over time. The term half-life denotes how long it takes for the measured level to halve.

Values taken from ChEMBL document CHEMBL3217621, “Diaryl ether derivatives as anticancer agents a review” (Medchemcomm, 2012).
